The target in test [1] is T1, recombinant human TG2 (hTG2) (Homo sapiens, UniProt P21980).
T1 construct: purchased Zedira
T1 sequence (P21980 1-687): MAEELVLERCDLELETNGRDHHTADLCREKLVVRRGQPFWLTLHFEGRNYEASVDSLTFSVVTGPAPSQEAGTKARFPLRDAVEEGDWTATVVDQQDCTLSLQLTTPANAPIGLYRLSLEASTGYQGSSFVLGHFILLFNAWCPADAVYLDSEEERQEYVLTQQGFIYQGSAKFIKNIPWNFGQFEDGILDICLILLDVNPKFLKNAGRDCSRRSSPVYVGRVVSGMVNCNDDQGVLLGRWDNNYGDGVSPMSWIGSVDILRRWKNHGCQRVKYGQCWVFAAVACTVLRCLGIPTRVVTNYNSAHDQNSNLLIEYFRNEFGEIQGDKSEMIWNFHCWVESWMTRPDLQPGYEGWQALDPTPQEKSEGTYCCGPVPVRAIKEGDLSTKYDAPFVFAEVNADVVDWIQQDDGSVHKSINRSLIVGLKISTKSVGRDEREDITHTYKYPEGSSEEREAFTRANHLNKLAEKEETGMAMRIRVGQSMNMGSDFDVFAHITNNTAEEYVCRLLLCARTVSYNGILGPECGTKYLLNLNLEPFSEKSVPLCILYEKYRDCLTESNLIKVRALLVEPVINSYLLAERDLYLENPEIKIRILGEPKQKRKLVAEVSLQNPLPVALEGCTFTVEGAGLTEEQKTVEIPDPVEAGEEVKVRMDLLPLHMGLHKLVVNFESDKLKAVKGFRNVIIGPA
Put plainly: Inhibition of recombinant Transglutaminase activity (fluorescent substrate), human TG2. It counts as biochemical. The following applies: recombinant human TG2, Fig 2A. How it is done: (§1) The potency and specificity of TG2 inhibitors was assessed with various recombinant TGs, as previously described. The reaction buffer (50 mM Tris, 100 mM NaCl, 10 mM CaCl2, 5 mM H-Gly-OMe*HCl (glycinemethylestherhydrochloride, Sigma), 5 mM hexadimethinbromide (Sigma), 9.1 mM DTT, pH 7.5) was heated to 37°C in a 96 well plate. Then 50 μM of the TG substrate Abz-NE(CAD-DNP)EQVSPLTLLK-OH (Zedira) was added. 1 μg/ml recombinant TG (human TG1, human (hTG2) / mouse TG2 (mTG2) or human Factor XIII (FXIII); Zedira) were added. The two lyophilized TG2 inhibitors (see Fig 1 for chemical structure) BJJF078 (3,4-Dimethoxy-N-(5-[4-(acryloylamino)piperidine-1-sulfonyl]-naphthalen-1-yl)-benzamide, kindly provided by Dr S. El Alaoui, Covalab, France) and ERW1041E (2-[(3-Bromo-4,5-dihydro-isoxazol-5-ylmethyl)-carbamoyl]-pyrrolidine-1—carboxylic acid quinolin-3-ylmethyl ester, kindly provided by Prof C. Khosla, Stanford University, USA) were dissolved in DMSO (stock solution: 54 mM) and stored at -80°C. These stocks were further diluted and various concentrations of the TG2 inhibitors (0.3 nM to 100 μM), were added to the wells (final DMSO concentration per well: 0.06%). The relative increase in fluorescence emission, correlating with enzymatic activity, was measured over 4 h with a fluorimeter (Excitation: 320nm, emission: 405 nm; Fluostar, GMB).

Test [2] has as its target T2, recombinant mouse TG2 (mTG2) (Mus musculus, UniProt P21981).
T2 construct: purchased Zedira
T2 sequence (P21981 1-686): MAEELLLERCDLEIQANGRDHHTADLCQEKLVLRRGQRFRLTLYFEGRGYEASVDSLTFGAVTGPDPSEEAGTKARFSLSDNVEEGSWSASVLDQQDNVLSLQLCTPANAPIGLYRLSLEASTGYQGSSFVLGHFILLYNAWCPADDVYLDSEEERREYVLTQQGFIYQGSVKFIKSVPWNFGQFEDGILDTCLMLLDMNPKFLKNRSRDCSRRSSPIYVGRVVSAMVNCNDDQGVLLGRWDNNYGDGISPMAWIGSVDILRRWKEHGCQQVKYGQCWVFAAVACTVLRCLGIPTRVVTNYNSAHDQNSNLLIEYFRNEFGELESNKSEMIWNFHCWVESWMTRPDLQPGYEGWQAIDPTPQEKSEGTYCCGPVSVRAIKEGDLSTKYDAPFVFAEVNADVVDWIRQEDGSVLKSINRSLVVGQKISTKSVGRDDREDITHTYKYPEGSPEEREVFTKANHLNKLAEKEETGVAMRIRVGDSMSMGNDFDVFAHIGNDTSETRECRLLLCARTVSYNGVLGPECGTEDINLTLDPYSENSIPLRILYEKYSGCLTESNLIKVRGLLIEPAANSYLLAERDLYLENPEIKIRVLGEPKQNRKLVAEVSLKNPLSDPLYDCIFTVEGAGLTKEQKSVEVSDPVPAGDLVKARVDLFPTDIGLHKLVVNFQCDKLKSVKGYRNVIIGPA
Put plainly: Inhibition of recombinant Transglutaminase activity (fluorescent substrate), mouse TG2. In kind it is biochemical. To be noted: recombinant mouse TG2, Fig 2A. As for the experimental part:
as §1

Test [3] has as its target T3, TG2-fibronectin (FN42) interaction (Homo sapiens, UniProt P21980).
T3 construct: purchased Zedira
T3 sequence (P21980 1-687): T1 sequence (P21980 1-687)
As to the kind of experiment: TG2 interaction with fibronectin (FN42) ELISA. In kind it is binding. To be noted: 5 and 15 μM, with or without 1 mM CaCl2, Fig 2E, 2F. How it is done: To determine the potential effect of BJJF078 and ERW1041E on the interaction of TG2 with fibronectin, ELISA experiments were performed as described previously. Briefly, 96 well ELISA plates (Nunc, Maxisorp) were coated with 100 μg/ml mouse anti his-tag monoclonal antibody (Roche) in PBS at 4°C overnight. This was followed by simultaneous washing and blocking with 0.5% BSA in PBS (3x 10 min). Per well 50 μl of a 10 nM human recombinant TG2 (his-tagged, Zedira) solution in PBS was added. Into each well (triplicates) either DMSO (control, 1% final concentration) or TG2 inhibitors (BJJF078, ERW1041E, final concentration 5 and 15 μM in 1% DMSO) were added. As a positive control similar concentrations of TG53, a small molecule that inhibits the interaction between TG2 and fibronectin was added (kindly provided by Prof D. Matei, Northwestern University, Chicago, USA). […] After 1 h incubation at RT, 50 μl of 10 nM FN42-biotin solution (kindly provided by Prof D. Matei) was added to the wells. After an additional 1 h incubation at RT and washing steps (3x 10 min) with 0.5% BSA in PBS, 100 μl streptavidin-HRPO conjugate (from kit opr001, Covalab) was added and incubated for 1 h at RT. This was followed by another series of washes and the colour reaction started with 100 μl of 3,3′,5,5′ tetramethylbenzidine substrate (TMB, from kit opr001, Covalab). After sufficient colour development (15 min), the reaction was stopped with 1M HCl and absorbance was measured at 450 nm.
(In general: An ELISA detects its analyte on a solid surface through an enzyme-linked reagent.)

The source of these data is PMC5918173, “Characterization of Transglutaminase 2 activity inhibitors in monocytes in vitro and their effect in a mouse model for multiple sclerosis” (PLoS ONE, 2018).

For orientation: IC50 means the concentration that gives 50% inhibition.

Turning to `C=CC(=O)NC1CCN(S(=O)(=O)c2cccc3c(NC(=O)c4ccc(OC)c(OC)c4)cccc23)CC1` [BJJF078, 3,4-Dimethoxy-N-(5-[4-(acryloylamino)piperidine-1-sulfonyl]-naphthalen-1-yl)-benzamide], the IC50 stood at 41 nM in test [1] and 54 nM in test [2]. Further, the “effect on binding of TG2 to fibronectin (FN42)” value in test [3] is recorded as “did not interfere”.
On the same counts, the results for `O=C(NCC1CC(Br)=NO1)C1CCCN1C(=O)OCc1cnc2ccccc2c1` (stereo not drawn) [ERW1041E, 2-[(3-Bromo-4,5-dihydro-isoxazol-5-ylmethyl)-carbamoyl]-pyrrolidine-1—carboxylic acid quinolin-3-ylmethyl ester] are 1600 nM, 6800 nM and “did not interfere”.
